Tests used:
[1] = target: T1, COX-2 (Homo sapiens, UniProt P35354); assay: Human whole blood assay (LPS-induced PGE2, COX-2 inhibition); assay type: cell-based; conditions: LPS stimulated
T1 construct: Fresh blood was collected in tubes containing sodium heparin by vein puncture from healthy male volunteers; endogenous in cells; host or cells: human whole blood from healthy male volunteers, aspirin-pretreated and LPS-stimulated
T1 sequence (P35354 18-604): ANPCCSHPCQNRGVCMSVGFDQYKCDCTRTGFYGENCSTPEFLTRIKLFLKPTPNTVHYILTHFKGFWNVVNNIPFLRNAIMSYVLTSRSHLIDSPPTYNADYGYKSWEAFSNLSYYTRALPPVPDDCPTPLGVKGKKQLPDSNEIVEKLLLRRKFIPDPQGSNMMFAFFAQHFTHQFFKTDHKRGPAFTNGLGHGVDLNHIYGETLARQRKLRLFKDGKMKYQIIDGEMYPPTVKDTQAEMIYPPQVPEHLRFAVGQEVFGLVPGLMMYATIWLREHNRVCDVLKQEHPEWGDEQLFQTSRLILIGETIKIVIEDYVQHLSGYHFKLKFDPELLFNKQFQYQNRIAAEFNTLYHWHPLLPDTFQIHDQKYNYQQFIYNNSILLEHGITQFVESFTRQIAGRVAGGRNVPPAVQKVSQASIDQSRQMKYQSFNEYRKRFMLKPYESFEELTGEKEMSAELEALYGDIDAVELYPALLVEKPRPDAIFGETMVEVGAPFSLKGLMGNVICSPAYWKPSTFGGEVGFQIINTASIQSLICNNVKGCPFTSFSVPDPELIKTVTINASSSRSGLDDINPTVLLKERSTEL
Description: Human whole blood provides a protein and cell rich milieu appropriate for the study of biochemical efficacy of anti-inflammatory compounds such as selective COX-2 inhibitors. […] This is correlating with the observation that COX-2 inhibitors have no effect on prostaglandin E2 (PGE2) production in normal blood. These inhibitors were active only after incubation of human blood with lipopolysaccharide (LPS), which induces COX-2 production in the blood.
Fresh blood was collected in tubes containing sodium heparin by vein puncture from healthy male volunteers. The subjects should have no apparent inflammatory conditions and not taken NSAIDs for at least 7 days prior to blood collection. Blood was preincubated with aspirin in vitro (12 μg/ml, at time zero) to inactivate COX-1 for 6 hours. Then test compounds (at various concentrations) or vehicle were added to blood. After that blood was stimulated with LPS B:4 (10 μg/ml) and incubated for another 18 h at 37° C. water bath. After which the blood was centrifuged, plasma was separated and stored at −80° C. (J. Pharmacol. Exp. Ther, 271, 1705, 1994; Proc. Natl. Acad. Sci. USA, 96, 7563, 1999). The plasma was assayed for PGE2 using Cayman ELISA kit as per the procedure outlined by the manufacturer (Cayman Chemicals, Ann Arbor, USA).

melting point: 263 to 266 °C | inhibition at 0.25 µM ([1]; 0.25 μM): 21.9% | inhibition at 10 µM ([1]; 10 μM): 16.8%
SMILES: CSc1ccc(-c2nc3[nH]nc(N)c3c(=O)n2-c2ccc(C)c(C)c2)cc1 [Example 2, 3-amino-5-(3,4-dimethylphenyl)-6-[4-(methylthio)phenyl]-1,5-dihydro-4H-pyrazolo[3,4-d]pyrimidin-4-one]

From patent US20090163521A1, “Novel Pyrazolopyrimidinone Derivatives” (ORCHID RESEARCH LABORATORIES LIMITED, priority 2005, published 2009)
